Data published in paper PMC6272684, “Synthesis, Antiproliferative and Antifungal Activities of 1,2,3-Triazole-Substituted Carnosic Acid and Carnosol Derivatives” (Molecules, 2015).
Read-outs that look alike come from different tables or passages of the source.

Key:
[1] = system: gastric epithelial adenocarcinoma (AGS) cells; assay: Antiproliferative assay (MTT reduction, 3 days); type: cell-based, human; settings: >100 µM considered inactive; for IC50: read-out: IC50 ± SD, AGS
Description: (§1) The antiproliferative activity towards the following human cell lines was determined: normal lung fibroblasts (MRC-5), gastric epithelial adenocarcinoma (AGS), lung cancer (SK-MES-1) and bladder carcinoma (J82) cells. […] When comparing the pairs 3–4, 5–6 and 7–8 differing in one CH2 unit in the linker, the activity decreased with linker length.
(§2) All human cell lines used in this work were purchased from the American Type Culture Collection (ATCC, Manasas, VA, USA). Normal lung MRC-5 fibroblasts (CCL-171), SK-MES-1 lung cancer cells (HTB-58) and J82 bladder carcinoma cells (HTB-1) were grown as monolayers in minimum essential Eagle medium (MEM) with Earles’s salts, 2 mM L-glutamine and 1.5 g∙L^−1 sodium bicarbonate. Gastric adenocarcinoma AGS cells (CRL-1739) were grown as monolayers in Ham F-12 medium containing 1 mM L-glutamine and 1.5 g∙L^−1 sodium bicarbonate. All media were supplemented with 10% heat-inactivated FBS, 100 IU∙mL^−1 penicillin and 100 µg∙mL^−1 streptomycin. Cells were grown in a humidified incubator with 5% CO2 in air at 37 °C. For the antiproliferative assay, cells were plated at a density of 5 × 10^4 cells∙mL^−1. Cells were seeded in 96-well plates (100 µL∙well^−1). One day after seeding, cells were treated with medium containing the compounds at concentrations ranging from 0 up to 100 µM during 3 days. The compounds were dissolved in DMSO (1% final concentration) and complete medium. Untreated cells (medium containing 1% DMSO) were used as 100% viability controls. […] Each concentration was tested in sextuplicate and experiments were repeated 2 times. Cell viability was determined by means of the MTT reduction assay at the end of the incubation with the products. The results were transformed to percentage of controls and the IC50 value was obtained adjusting the dose-response curve to a sigmoidal model. The software used was OriginPro 8.1 [30].

C. albicans ATCC 10231 = assay: Antifungal broth microdilution (CLSI M27-A3), growth inhibition; type: cell-based, Candida albicans; settings: for MIC50 (minimum concentration to inhibit 50% of fungal growth), C. albicans: C. albicans ATCC 10231
Procedure, shortened: (§3)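 Yeast inocula (1–5 × 10^3 CFU/mL) were tested by CLSI M27-A3 broth microdilution in RPMI-1640 at 250–3.9 μg∙mL^−1 (DMSO ≤1%) for 48 h at 30 °C in the dark. Growth was read at OD405, and % inhibition was calculated against growth and sterility controls in triplicate. MIC100 is total inhibition; MIC50 is 50% inhibition.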

C. neoformans ATCC 32264 = assay: as above; type: cell-based, Cryptococcus neoformans; settings: for MIC50 (minimum concentration to inhibit 50% of fungal growth), C. neoformans: C. neoformans ATCC 32264
Procedure, shortened: as §3

[2] = system: bladder carcinoma (J82) cells; assay: Antiproliferative assay (MTT reduction, 3 days); type: cell-based, human; settings: read-out: IC50 ± SD, J82
Description: as §1, §2

[3] = system: lung cancer (SK-MES-1) cells; assay: Antiproliferative assay (MTT reduction, 3 days); type: cell-based, human; settings: >100 µM considered inactive, read-out: IC50 ± SD, SK-MES-1
Description: (§4) The antiproliferative activity towards the following human cell lines was determined: normal lung fibroblasts (MRC-5), gastric epithelial adenocarcinoma (AGS), lung cancer (SK-MES-1) and bladder carcinoma (J82) cells.
as §2, with “Normal lung MRC-5 fibroblasts (CCL-171), SK-MES-1 lung cancer cells (HTB-58) and J82 bladder carcinoma cells (HTB-1) were grown as monolayers in minimum essential Eagle medium (MEM) with Earles’s salts, 2 mM L-glutamine and 1.5 g∙L^−1 sodium bicarbonate. Gastric adenocarcinoma AGS cells (CRL-1739) were grown as monolayers in Ham F-12 medium containing 1 mM L-glutamine and 1.5 g∙L^−1 sodium bicarbonate.” left out, “The results were transformed to percentage of controls and the IC50 value was obtained adjusting the dose-response curve to a sigmoidal model.” left out

[4] = system: normal lung fibroblasts (MRC-5); assay: Antiproliferative assay (MTT reduction, 3 days); type: cell-based, human; settings: MRC-5 normal fibroblasts, >100 µM considered inactive; for IC50: read-out: IC50 ± SD, MRC-5
Description: as §4
as §2, with “Normal lung MRC-5 fibroblasts (CCL-171), SK-MES-1 lung cancer cells (HTB-58) and J82 bladder carcinoma cells (HTB-1) were grown as monolayers in minimum essential Eagle medium (MEM) with Earles’s salts, 2 mM L-glutamine and 1.5 g∙L^−1 sodium bicarbonate. Gastric adenocarcinoma AGS cells (CRL-1739) were grown as monolayers in Ham F-12 medium containing 1 mM L-glutamine and 1.5 g∙L^−1 sodium bicarbonate.” left out, “The results were transformed to percentage of controls and the IC50 value was obtained adjusting the dose-response curve to a sigmoidal model.” left out

[5] = J82 cells, 3 days, MTT, >100 µM considered inactive

Row | SMILES | IC50 [1] [µM] | Inhibition percentage against C. albicans ATCC 10231 (C. albicans ATCC 10231; 3.9 μg∙mL^−1, 48 h) [%] | Inhibition percentage against C. albicans ATCC 10231 (C. albicans ATCC 10231; 7.8 μg∙mL^−1, 48 h) [%] | Inhibition percentage against C. albicans ATCC 10231 (C. albicans ATCC 10231; 15.6 μg∙mL^−1, 48 h) [%] | Inhibition percentage against C. albicans ATCC 10231 (C. albicans ATCC 10231; 62.5 μg∙mL^−1, 48 h) [%] | Inhibition percentage against C. albicans ATCC 10231 (C. albicans ATCC 10231; 125 μg∙mL^−1, 48 h) [%] | Inhibition percentage against C. albicans ATCC 10231 (C. albicans ATCC 10231; 250 μg∙mL^−1, 48 h) [%] | Inhibition percentage against C. albicans ATCC 10231 (C. albicans ATCC 10231; 31. μg∙mL^−1, 48 h) [%] | MIC50 (minimum concentration to inhibit 50% of fungal growth), C. albicans (C. albicans ATCC 10231) [µg/mL] | Inhibition percentage against C. neoformans ATCC 32264 (C. neoformans ATCC 32264; 3.9 μg∙mL^−1, 48 h) [%] | Inhibition percentage against C. neoformans ATCC 32264 (C. neoformans ATCC 32264; 7.8 μg∙mL^−1, 48 h) [%] | Inhibition percentage against C. neoformans ATCC 32264 (C. neoformans ATCC 32264; 15.6 μg∙mL^−1, 48 h) [%] | Inhibition percentage against C. neoformans ATCC 32264 (C. neoformans ATCC 32264; 31.2 μg∙mL^−1, 48 h) [%] | Inhibition percentage against C. neoformans ATCC 32264 (C. neoformans ATCC 32264; 62.5 μg∙mL^−1, 48 h) [%] | Inhibition percentage against C. neoformans ATCC 32264 (C. neoformans ATCC 32264; 125 μg∙mL^−1, 48 h) [%] | MIC50 (minimum concentration to inhibit 50% of fungal growth), C. neoformans (C. neoformans ATCC 32264) [µg/mL] | IC50 [2, 5] [µM] | IC50 [3] [µM] | IC50 [4] [µM] | Inhibition percentage against C. neoformans ATCC 32264 (C. neoformans ATCC 32264; 250 μg∙mL^−1, 48 h) [%] | other results
1 | CC(C)c1cc2c(c(OC(=O)CCc3cn(Cc4ccc([N+](=O)[O-])cc4)nn3)c1OC(=O)CCc1cn(Cc3ccc([N+](=O)[O-])cc3)nn1)C13CCCC(C)(C)C1CC2OC3=O (stereo not drawn) [Compound 23, (7β)-11,12-O-(3-(1-(4-nitrobenzyl)-1H-1,2,3-triazol-4-yl)-propanoyloxy)-7,20-epoxyabieta-8,11,13-trien-20-one] | 99.4 | 0.0 | 1.6 ± 0.8 | 3.3 ± 0.6 | 6.7 ± 1.6 | 17.6 ± 1.4 | 25.5 ± 2.5 | 6.0 ± 0.5 | >250 | 6.0 ± 0.1 | 11.5 ± 1.5 | 16.2 ± 0.2 | 18.1 ± 0.4 | 32.6 ± 0.8 | 37.7 ± 0.7 | 250 |  |  |  |  | 
2 | CC(C)c1cc2c3c(c1OC(=O)CCCc1cn(Cc4ccccc4)nn1)OC(=O)C31CCCC(C)(C)C1CC2 (centres unmarked) [Compound 4, 12-O-(4-(1-benzyl-1H-1,2,3-triazol-4-yl)-butanoyloxy)-11,20-epoxyabieta-8,11,13-trien-20-one] | > 100 | 3.7 ± 0.4 | 4.1 ± 1.7 | 9.5 ± 1.3 | 16.4 ± 2.3 | 28.2 ± 2.1 | 51.6 ± 0.1 | 10.2 ± 1.2 | 250 | 0.0 | 0.0 | 2.3 ± 1.0 | 8.5 ± 1.0 | 9.8 ± 1.1 | 17.8 ± 1.4 | 250 | > 100 | > 100 | > 100 | 53.4 ± 2.1 | IC50 ± SD, AGS [1]: inactive; IC50 ± SD, MRC-5 [4]: inactive
3 | CC(C)c1cc2c3c(c1OC(=O)CCCc1cn(CSc4ccccc4)nn1)OC(=O)C31CCCC(C)(C)C1CC2 (centres unmarked) [Compound 2, 12-O-(4-(((1-phenylthio)methyl)-1H-1,2,3-triazol-4-yl)-butanoyloxy)-11,20-epoxyabieta-8,11,13-trien-20-one] | 41 ± 2.1 | 1.5 ± 0.1 | 1.9 ± 0.5 | 5.2 ± 0.6 | 15.7 ± 1.8 | 27.9 ± 1.8 | 50.7 ± 0.3 | 8.9 ± 1.8 | 250 | 1.5 ± 0.1 | 1.9 ± 0.5 | 10.3 ± 1.0 | 11.8 ± 0.3 | 20.7 ± 0.6 | 22.1 ± 1.5 | 250 | 80.1 ± 4.3 | 76 ± 5.1 | 46.9 ± 3.4 | 74.8 ± 2.8 | 
4 | CC(C)c1cc2c3c(c1OC(=O)CCc1cn(Cc4ccc(Br)cc4)nn1)OC(=O)[C@@]31CCCC(C)(C)[C@@H]1CC2 [Compound 5, 12-O-(3-(1-(4-bromobenzyl)-1H-1,2,3-triazol-4-yl)-propanoyloxy)-11,20-epoxyabieta-8,11,13-trien-20-one] | > 100 | 0.0 | 0.0 | 0.0 | 4.1 ± 1.7 | 8.3 ± 3.3 | 16.5 ± 1.3 | 3.0 ± 2.7 | >250 | 2.3 ± 0.9 | 6.0 ± 0.7 | 7.7 ± 0.6 | 8.7 ± 1.4 | 12.0 ± 1.0 | 12.6 ± 0.5 | >250 | > 100 | > 100 | 82.6 ± 6.6 | 36.9 ± 2.2 | 
5 | COc1cc([C@@H]2c3cc4c(cc3[C@@H](O[C@@H]3O[C@@H]5CO[C@@H](C)O[C@H]5[C@H](O)[C@H]3O)[C@H]3COC(=O)[C@H]23)OCO4)cc(OC)c1O [Etoposide, reference compound] |  |  |  |  |  |  |  |  |  |  |  |  |  |  |  |  |  |  |  |  | IC50 ([1]; Homo sapiens, 72 h): 0.58 ± 0.02 µM; IC50 ([2]; Homo sapiens, J82, 72 h): 3.49 ± 0.16 µM
6 | COC(=O)C12CCCC(C)(C)C1CCc1cc(C(C)C)c(OC(=O)CCc3cn(Cc4ccccc4)nn3)c(OC(=O)CCc3cn(Cc4ccccc4)nn3)c12 (centres unmarked) [Compound 11, Methyl(11,12-O-(3-(1-benzyl-1H-1,2,3-triazol-4-yl)-propanoyloxy)-abieta-8,11,13-triene)-20-oate] | 89.4 | 1.8 ± 0.1 | 1.9 ± 0.5 | 3.5 ± 0.7 | 11.8 ± 0.3 | 23.3 ± 2.1 | 45.7 ± 3.0 | 5.5 ± 1.7 | >250 | 0.0 | 2.7 ± 0.9 | 13.3 ± 2.0 | 14.2 ± 1.3 | 19.4 ± 2.1 | 38.3 ± 2.9 | 250 |  |  |  | 57.2 ± 2.4 | Antifungal activity against C. albicans (in words) (C. albicans ATCC 10231; at the assayed concentrations (250–3.9 μg∙mL^−1)): weak effect
